Laboratory results as given in ChEMBL document CHEMBL1133610, “GRID/CPCA: a new computational tool to design selective ligands” (J Med Chem, 2000).

What was measured:
Coagulation factor X [1] = molecular target: T1, Coagulation factor X (Homo sapiens, UniProt P00742); experiment: Inhibitory activity against human Coagulation factor Xa
Prothrombin = Prothrombin (Homo sapiens, UniProt P00734); experiment: Inhibitory activity against human thrombin
Coagulation factor X [2] = molecular target: T1, Coagulation factor X; experiment: Inhibitory Activity against Coagulation factor X
Serine protease 1 = Serine protease 1 (Homo sapiens, UniProt P07477); experiment: Inhibitory Activity against Trypsin
Chain of Serine protease 1 (P07477 whole entry): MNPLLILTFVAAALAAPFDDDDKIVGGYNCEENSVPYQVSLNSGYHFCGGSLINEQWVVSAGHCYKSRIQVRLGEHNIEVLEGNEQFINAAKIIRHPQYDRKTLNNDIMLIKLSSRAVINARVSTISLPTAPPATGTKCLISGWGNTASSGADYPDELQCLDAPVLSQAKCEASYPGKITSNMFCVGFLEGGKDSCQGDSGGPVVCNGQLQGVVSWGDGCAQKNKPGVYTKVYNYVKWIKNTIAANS

T1 sequence (P00742 41-179 limits assumed): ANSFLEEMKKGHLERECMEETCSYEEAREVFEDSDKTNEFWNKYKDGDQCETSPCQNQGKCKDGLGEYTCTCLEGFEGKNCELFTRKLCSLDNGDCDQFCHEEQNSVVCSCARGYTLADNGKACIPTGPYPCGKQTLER
T1 sequence (P00742 235-488 limits assumed): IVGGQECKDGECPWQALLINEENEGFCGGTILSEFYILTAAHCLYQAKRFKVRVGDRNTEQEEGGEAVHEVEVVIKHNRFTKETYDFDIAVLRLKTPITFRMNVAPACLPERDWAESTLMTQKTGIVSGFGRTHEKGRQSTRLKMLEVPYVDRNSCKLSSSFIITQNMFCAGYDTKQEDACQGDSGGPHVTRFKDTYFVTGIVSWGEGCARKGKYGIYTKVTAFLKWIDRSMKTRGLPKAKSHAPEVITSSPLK

IC50 (Coagulation factor X [1]) [µM] | IC50 (Prothrombin) [µM] | Ki (Coagulation factor X [2]) [µM] | Ki (Serine protease 1) [µM] | Structure (SMILES)
0.00272 | > 100 | – | – | N=C(N)c1cccc(-c2cccc([C@H](CCCNc3ccncc3)C(=O)O)c2)c1
– | – | 210 | 5 | CC1CNc2c(cccc2S(=O)(=O)N[C@@H](CCCN=C(N)N)C(=O)N2CC[C@@H](C)CC2C(=O)O)C1 (some centres undefined)
